{"source": "patent US20210315837A1", "about": "“CANNABINOIDS FOR THE TREATMENT OF GRAM-POSITIVE INFECTIONS INCLUDING ANTIBIOTIC-RESISTANT BACTERIAL STRAINS” (priority 2018, published 2021)", "key": {"MRS USA 300": {"tested_on": "MRS USA 300", "assay": "IC50, MIC and MBC against MRS USA 300", "type": "cell-based, Staphylococcus aureus", "procedure": "(§1) As used herein, the term “minimum inhibitory concentration (MIC)” refers to the lowest concentration of an antimicrobial agent that will inhibit the visible growth of a microorganism after overnight incubation. MIC values against bacteria may be determined by standard methods. See also P. A. Wayne, Methods for Dilution Antimicrobial Tests for Bacteria that Grow Aerobically; Approved Standard, Ninth Edition, 2012, CLSI Document M07-A9, Vol. 32 No. 2, which is incorporated by reference herein in its entirety."}, "[1]": {"tested_on": "MRS 1708 (Mupirocin-resistant)", "assay": "IC50, MIC and MBC against MRS 1708 (Mupirocin-resistant)", "type": "cell-based, Staphylococcus aureus", "settings": "for IC50 / MBC / MIC: Staphylococcus aureus", "procedure": "as §1"}, "MRS 33591 [2]": {"tested_on": "MRS 33591", "assay": "IC50, MIC and MBC against MRS 33591", "type": "cell-based, Staphylococcus aureus", "procedure": "as §1"}, "MRS USA 400": {"tested_on": "MRS USA 400", "assay": "IC50, MIC and MBC against MRS USA 400", "type": "cell-based, Staphylococcus aureus", "procedure": "as §1"}, "S. aureus 29213": {"tested_on": "S. aureus 29213", "assay": "IC50, MIC and MBC against S. aureus 29213", "type": "cell-based", "settings": "Staphylococcus aureus; for IC50: 29213; for MIC: S. aureus 29213, tested Conc. in μg/mL, read-out: MIC", "procedure": "As used herein, the term “minimum inhibitory concentration (MIC)” refers to the lowest concentration of an antimicrobial agent that will inhibit the visible growth of a microorganism after overnight incubation. MIC values against bacteria may be determined by standard methods."}, "MRS 33591 [3]": {"tested_on": "MRS 33591", "assay": "Growth inhibition of cannabinoid combinations, IC50s chosen for FICs, MRS 33591", "type": "cell-based", "settings": "Staphylococcus aureus"}, "MRS 1696": {"tested_on": "MRS 1696", "assay": "Growth inhibition of cannabinoid combinations, IC50s chosen for FICs, MRS 1696", "type": "cell-based", "settings": "Staphylococcus aureus"}, "MRS 1708": {"tested_on": "MRS 1708", "assay": "Growth inhibition of cannabinoid combinations, IC50s chosen for FICs, MRS 1708", "type": "cell-based", "settings": "Staphylococcus aureus"}, "MRS 1717": {"tested_on": "MRS 1717", "assay": "Growth inhibition of cannabinoid combinations, IC50s chosen for FICs, MRS 1717", "type": "cell-based", "settings": "Staphylococcus aureus"}, "Mupirocin-resistant MRS": {"tested_on": "Mupirocin-resistant MRS", "type": "cell-based, Staphylococcus aureus", "settings": "in combination with Mupirocin"}, "[4]": {"settings": "MRS USA 300, tested Conc. in μg/mL"}, "[5]": {"settings": "MRS 33591, tested Conc. in μg/mL"}, "[6]": {"settings": "MRS USA 400, tested Conc. in μg/mL"}, "[7]": {"settings": "read-out: IC50, Cannabidiol (CBD) + Cannabigerol (CBG)"}, "[8]": {"settings": "read-out: IC50, Cannabinol (CBN) + Cannabigerol (CBG)"}, "[9]": {"settings": "IC50 of first-named cannabinoid at the fixed ug/mL of the second given in the label, read-out: IC50, Cannabinol (CBN) + Cannabigerol (CBG)"}, "[10]": {"settings": "read-out: IC50, Cannabidiol (CBD) + Cannabinol (CBN)"}}, "note": "“And” between values parts separate entries of the source, which are not always exact repeats. Equal values may be shown once. Read-outs that look alike come from different tables or passages of the source.", "data": [{"molecule": "CCCCCc1cc(O)c(C/C=C(\\C)CCC=C(C)C)c(O)c1", "note": "[CBG, Cannabigerol]", "values": [{"measurement": "MIC", "setting": "MRS USA 300; [4]", "value": 1.67}, {"measurement": "IC50", "setting": "MRS USA 300; Staphylococcus aureus, USA300", "value": "2.43 µM and 0.77 µg/mL"}, {"measurement": "MBC", "setting": "MRS USA 300; Staphylococcus aureus, USA300", "value": "> 63", "unit": "µM"}, {"measurement": "MIC", "setting": "MRS USA 300; Staphylococcus aureus, USA300", "value": "5.28 ± 2.27", "unit": "µM"}, {"measurement": "IC50", "setting": "[1]", "value": "2.34 µM and 0.74 µg/mL"}, {"measurement": "MBC", "setting": "[1]", "value": "> 63", "unit": "µM"}, {"measurement": "MIC", "setting": "[1]", "value": 3.95, "unit": "µM"}, {"measurement": "MBC", "setting": "MRS 33591 [2]; [5]", "value": 3.75}, {"measurement": "IC50", "setting": "MRS 33591 [2]; Staphylococcus aureus", "value": "2.31 µM and 0.73 µg/mL"}, {"measurement": "MBC", "setting": "MRS 33591 [2]; Staphylococcus aureus", "value": "11.8 ± 5.59", "unit": "µM"}, {"measurement": "MIC", "setting": "MRS 33591 [2]; Staphylococcus aureus", "value": "3.95 µM and 1.25 µg/mL"}, {"measurement": "MIC", "setting": "MRS USA 400; [6]", "value": 1.67}, {"measurement": "IC50", "setting": "MRS USA 400; Staphylococcus aureus, USA400", "value": "2.72 µM and 0.86 µg/mL"}, {"measurement": "MBC", "setting": "MRS USA 400; Staphylococcus aureus, USA400", "value": "> 63", "unit": "µM"}, {"measurement": "MIC", "setting": "MRS USA 400; Staphylococcus aureus, USA400", "value": "5.28 ± 2.27", "unit": "µM"}, {"measurement": "IC50", "setting": "S. aureus 29213", "value": 0.75, "unit": "µg/mL"}, {"measurement": "MIC", "setting": "S. aureus 29213", "value": 1.25, "unit": "µg/mL"}, {"measurement": "IC50", "setting": "MRS 33591 [3]; [7]", "value": 1.08, "unit": "µg/mL"}, {"measurement": "IC50", "setting": "MRS 33591 [3]; [8]", "value": 1.05, "unit": "µg/mL"}, {"measurement": "IC50", "setting": "MRS 1696; [7]", "value": 0.9, "unit": "µg/mL"}, {"measurement": "IC50", "setting": "MRS 1696; [8]", "value": 0.896, "unit": "µg/mL"}, {"measurement": "IC50", "setting": "MRS 1708; [9]", "value": 0.872, "unit": "µg/mL"}, {"measurement": "IC50", "setting": "MRS 1708; read-out: IC50, Cannabidiol (CBD) + Cannabigerol (CBG), IC50 of first-named cannabinoid at the fixed ug/mL of the second given in the label", "value": 0.959, "unit": "µg/mL"}, {"measurement": "IC50", "setting": "MRS 1717; [7]", "value": 0.741, "unit": "µg/mL"}, {"measurement": "IC50", "setting": "MRS 1717; [8]", "value": 0.911, "unit": "µg/mL"}, {"measurement": "effect of combination with Mupirocin", "setting": "Mupirocin-resistant MRS", "value": "no effect"}]}, {"molecule": "CCCCCc1cc(O)c2c(c1)OC(C)(C)c1ccc(C)cc1-2", "note": "[CNB, Cannabinol]", "values": [{"measurement": "MBC", "setting": "MRS USA 300; [4]", "value": 3.33}, {"measurement": "MIC", "setting": "MRS USA 300; [4]", "value": "2.5 ± 0"}, {"measurement": "IC50", "setting": "MRS USA 300; Staphylococcus aureus, USA300", "value": "3.32 µM and 1.03 µg/mL"}, {"measurement": "MBC", "setting": "MRS USA 300; Staphylococcus aureus, USA300", "value": "10.7 ± 4.64", "unit": "µM"}, {"measurement": "MIC", "setting": "MRS USA 300; Staphylococcus aureus, USA300", "value": 8.05, "unit": "µM"}, {"measurement": "AMC", "setting": "[1]; Mupirocin-resistant MRS (Table 11)", "value": "2.08 ± 0.72"}, {"measurement": "IC50", "setting": "[1]", "value": "2.77 µM and 0.86 µg/mL"}, {"measurement": "MBC", "setting": "[1]", "value": "6.7 ± 2.32", "unit": "µM"}, {"measurement": "MIC", "setting": "[1]", "value": "5.38 ± 7.32", "unit": "µM"}, {"measurement": "MBC", "setting": "MRS 33591 [2]; [5]", "value": 4.17}, {"measurement": "IC50", "setting": "MRS 33591 [2]; Staphylococcus aureus", "value": "2.48 µM and 0.77 µg/mL"}, {"measurement": "MBC", "setting": "MRS 33591 [2]; Staphylococcus aureus", "value": "13.4 ± 4.64", "unit": "µM"}, {"measurement": "MIC", "setting": "MRS 33591 [2]; Staphylococcus aureus", "value": "4.03 µM and 1.25 µg/mL"}, {"measurement": "MBC", "setting": "MRS USA 400; [6]", "value": "5.83 ± 3.82"}, {"measurement": "MIC", "setting": "MRS USA 400; [6]", "value": "2.5 ± 0"}, {"measurement": "IC50", "setting": "MRS USA 400; Staphylococcus aureus, USA400", "value": "4.16 µM and 1.29 µg/mL"}, {"measurement": "MBC", "setting": "MRS USA 400; Staphylococcus aureus, USA400", "value": "18.8 ± 12.3", "unit": "µM"}, {"measurement": "MIC", "setting": "MRS USA 400; Staphylococcus aureus, USA400", "value": 8.05, "unit": "µM"}, {"measurement": "IC50", "setting": "S. aureus 29213", "value": 0.92, "unit": "µg/mL"}, {"measurement": "MIC", "setting": "S. aureus 29213", "value": 1.67, "unit": "µg/mL"}, {"measurement": "IC50", "setting": "MRS 33591 [3]; [10]", "value": 1.09, "unit": "µg/mL"}, {"measurement": "IC50", "setting": "MRS 33591 [3]; [8]", "value": 1.11, "unit": "µg/mL"}, {"measurement": "IC50", "setting": "MRS 1696; [10]", "value": 1.5, "unit": "µg/mL"}, {"measurement": "IC50", "setting": "MRS 1696; [8]", "value": 1.32, "unit": "µg/mL"}, {"measurement": "IC50", "setting": "MRS 1708; [9]", "value": 1.07, "unit": "µg/mL"}, {"measurement": "IC50", "setting": "MRS 1708; read-out: IC50, Cannabidiol (CBD) + Cannabinol (CBN), IC50 of first-named cannabinoid at the fixed ug/mL of the second given in the label", "value": 0.956, "unit": "µg/mL"}, {"measurement": "IC50", "setting": "MRS 1717; [10]", "value": 0.908, "unit": "µg/mL"}, {"measurement": "IC50", "setting": "MRS 1717; [8]", "value": 1.11, "unit": "µg/mL"}, {"measurement": "effect of combination with Mupirocin", "setting": "Mupirocin-resistant MRS", "value": "no effect"}]}]}
